Reference: ChEMBL document CHEMBL1201862, “PubChem BioAssay data set” (2004)
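Growth conditions: 96-well plates. Treatment: test compound, 48 hours, 5 concentrations. Analysis: linear interpolation between bracketing concentrations; unreached endpoints set to highest concentration. GI50 is the concentration that inhibits growth by half.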 Active and inactive are the calls of the source. Cut-off read from the data, not from the text of the source: active = GI50 up to about 1.1 µM and inactive = higher.

Key:
Test in all cases: NCI-60 cell line screen, 48 h
[1] = system: COLO 205
[2] = system: M19-MEL
[3] = system: RPMI-8226
[4] = system: SN12C
[5] = system: SK-MEL-28
[6] = system: NCI-H226
[7] = system: HOP-92
[8] = system: SW-620
[9] = system: T47D
[10] = system: ACHN
[11] = system: K562
[12] = system: SF-268
[13] = system: CAKI-1
[14] = system: BT-549
[15] = system: Hs-578T
[16] = system: HCC 2998
[17] = system: SF-295
[18] = system: SF-539
[19] = system: UACC-62
[20] = system: HOP-62

With `COc1c(O)c2c(c3cc(C(=O)N4CCc5c4c(O)c(OC)c4[nH]c(C(=O)N6CC7CC78C6=CC(=O)c6[nH]cc(C)c68)cc54)[nH]c13)CCN2C(N)=O` (stereo not given) [CC-1065] the GI50 [1] was 0.00168 µM (active), the GI50 [2] was 0.0048 µM (active) and the GI50 [3] was 0.027 µM (active). The GI50 [4] was 0.000685 µM (active), the GI50 [5] was 0.00184 µM (active) and the GI50 [6] was 0.000212 µM (active). The GI50 [7] was 0.00306 µM (active), the GI50 [8] was 0.00105 µM (active) and the GI50 [9] was 0.356 µM (active). For the same compound, the GI50 [10] was 0.00298 µM (active), the GI50 [11] was 0.00309 µM (active) and the GI50 [12] was 0.00259 µM (active). For the same compound, the GI50 [13] was 0.000975 µM (active), the GI50 [14] was 1.04 µM (active) and the GI50 [15] was 0.294 µM (active). The GI50 [16] was 0.114 µM (active), the GI50 [17] was 0.00119 µM (active) and the GI50 [18] was 0.00366 µM (active). For the same compound, the GI50 [19] was 0.00187 µM (active).
`O=C(NCCCCCCNC(=O)n1cc(F)c(=O)[nH]c1=O)NCCCOCCOCCOCCOCCOCCOCCOCCOCCOCCOCCOCCOCCOCCOCCOCCOCCOCCOCCOCCOCCOCCCNC(=O)C(O)C(O)C(OC1OC(CO)C(O)C(O)C1O)C(O)CO` (stereo not given) was tested, and the GI50 [1] was 15.3 µM (inactive), the GI50 [2] was 64.3 µM (inactive) and the GI50 [3] was 17 µM (inactive). For the same compound, the GI50 [4] was 56.5 µM (inactive), the GI50 [5] was 29.1 µM (inactive) and the GI50 [20] was 20.6 µM (inactive). For the same compound, the GI50 [6] was > 77.3 µM (inactive), the GI50 [7] was > 100 µM (inactive) and the GI50 [8] was 64.7 µM (inactive). For the same compound, the GI50 [9] was 85.7 µM (inactive), the GI50 [10] was 10.3 µM (inactive) and the GI50 [11] was 52.4 µM (inactive). For the same compound, the GI50 [12] was 75.5 µM (inactive), the GI50 [13] was 70 µM (inactive) and the GI50 [14] was > 100 µM (inactive). The GI50 [15] was 69.2 µM (inactive), the GI50 [16] was 1.71 µM (inactive) and the GI50 [17] was 64.9 µM (inactive). The GI50 [18] was 1.67 µM (inactive) and the GI50 [19] was 27.9 µM (inactive).
For `CNCc1cc(OC)ccc1-c1ccc(OC)c(OC)c1OC`, the GI50 [1] was > 100 µM (inactive), the GI50 [2] was > 100 µM (inactive) and the GI50 [3] was > 100 µM (inactive). For the same compound, the GI50 [4] was > 100 µM (inactive), the GI50 [5] was > 100 µM (inactive) and the GI50 [20] was > 100 µM (inactive). The GI50 [6] was > 100 µM (inactive), the GI50 [7] was > 70.6 µM (inactive) and the GI50 [8] was > 96.4 µM (inactive). For the same compound, the GI50 [10] was > 100 µM (inactive), the GI50 [11] was 51.9 µM (inactive) and the GI50 [12] was > 100 µM (inactive). The GI50 [13] was > 100 µM (inactive), the GI50 [16] was > 88.7 µM (inactive) and the GI50 [17] was 75 µM (inactive). For the same compound, the GI50 [18] was > 100 µM (inactive) and the GI50 [19] was > 100 µM (inactive).
`COc1ccc2[nH]c3c(C)c4c(c(C)c3c2c1)CN(C)CC4` was tested, and the GI50 [1] was 17.4 µM (inactive), the GI50 [2] was 17.3 µM (inactive) and the GI50 [3] was 4.69 µM (inactive). The GI50 [4] was 16.3 µM (inactive), the GI50 [5] was 14.2 µM (inactive) and the GI50 [20] was 17.3 µM (inactive). The GI50 [6] was 15.8 µM (inactive), the GI50 [7] was 16.9 µM (inactive) and the GI50 [8] was 4.21 µM (inactive). For the same compound, the GI50 [10] was 18.8 µM (inactive), the GI50 [11] was 4.59 µM (inactive) and the GI50 [12] was 18.9 µM (inactive). The GI50 [13] was 18.5 µM (inactive), the GI50 [16] was 16.9 µM (inactive) and the GI50 [17] was 18.8 µM (inactive). The GI50 [18] was 16 µM (inactive) and the GI50 [19] was 19.2 µM (inactive).
`SCc1ccc(-c2ccc(CS)cc2)cc1` was tested, and the GI50 [1] was 18 µM (inactive), the GI50 [2] was 18.6 µM (inactive) and the GI50 [3] was 8.77 µM (inactive). For the same compound, the GI50 [4] was 26.3 µM (inactive), the GI50 [5] was 9.55 µM (inactive) and the GI50 [20] was 6.75 µM (inactive). For the same compound, the GI50 [6] was 18.4 µM (inactive), the GI50 [7] was 17.9 µM (inactive) and the GI50 [8] was 22.2 µM (inactive). The GI50 [9] was 19.7 µM (inactive), the GI50 [10] was 18.7 µM (inactive) and the GI50 [11] was 4.07 µM (inactive). The GI50 [12] was 3.33 µM (inactive), the GI50 [13] was 4.42 µM (inactive) and the GI50 [14] was 2.42 µM (inactive). For the same compound, the GI50 [15] was 3.98 µM (inactive), the GI50 [16] was 15.6 µM (inactive) and the GI50 [17] was 8.97 µM (inactive). For the same compound, the GI50 [18] was 18 µM (inactive) and the GI50 [19] was 14.9 µM (inactive).
For `COc1ccc2c(=O)cc(-c3ccc(OC)c(OC)c3OC)oc2c1`, the GI50 [1] was > 71.8 µM (inactive), the GI50 [2] was 67.9 µM (inactive) and the GI50 [3] was 16.9 µM (inactive). For the same compound, the GI50 [4] was 61.4 µM (inactive), the GI50 [5] was > 100 µM (inactive) and the GI50 [20] was > 85.3 µM (inactive). The GI50 [6] was > 65.9 µM (inactive), the GI50 [7] was 33.1 µM (inactive) and the GI50 [8] was > 100 µM (inactive). For the same compound, the GI50 [9] was > 100 µM (inactive), the GI50 [10] was > 63.2 µM (inactive) and the GI50 [11] was 37.1 µM (inactive). The GI50 [12] was > 60.1 µM (inactive), the GI50 [13] was > 82.4 µM (inactive) and the GI50 [14] was > 100 µM (inactive). For the same compound, the GI50 [15] was 47.6 µM (inactive), the GI50 [16] was > 63.8 µM (inactive) and the GI50 [17] was 48.1 µM (inactive). For the same compound, the GI50 [18] was > 57.3 µM (inactive) and the GI50 [19] was 48.8 µM (inactive).
With `Clc1ccc2c(Cl)ncnc2c1` the GI50 [1] was > 100 µM (inactive), the GI50 [2] was > 100 µM (inactive) and the GI50 [3] was > 100 µM (inactive). For the same compound, the GI50 [4] was > 100 µM (inactive), the GI50 [5] was > 100 µM (inactive) and the GI50 [20] was > 100 µM (inactive). The GI50 [6] was 32.7 µM (inactive), the GI50 [7] was 85.7 µM (inactive) and the GI50 [8] was > 100 µM (inactive). For the same compound, the GI50 [10] was > 100 µM (inactive), the GI50 [11] was > 100 µM (inactive) and the GI50 [12] was > 100 µM (inactive). For the same compound, the GI50 [13] was > 100 µM (inactive), the GI50 [16] was > 100 µM (inactive) and the GI50 [17] was > 100 µM (inactive). For the same compound, the GI50 [18] was > 100 µM (inactive) and the GI50 [19] was > 100 µM (inactive).
